The target of experiment [1] is T1, Human recombinant LSD1 protein (Homo sapiens, UniProt O60341).
T1 construct: amino acids 158-end with N-terminal GST tag; purchased BPS Bioscience Inc 50100
Briefly: LSD1 in vitro biochemical assay (Amplex Red, di-methylated H3-K4 peptide). From the text:
The inhibitory activity of a compound of interest against LSD1 can be tested using the method described below: Human recombinant LSD1 protein from BPS Bioscience Inc (catalog reference number 50100: human recombinant LSD1, GenBank accession no. NM_015013, amino acids 158-end with N-terminal GST tag, MW: 103 kDa) was used. In order to monitor LSD1 enzymatic activity and/or its inhibition rate by a test compound, di-methylated H3-K4 peptide (Anaspec) was chosen as a substrate. The demethylase activity was estimated, under aerobic conditions, by measuring the release of H2O2 produced during the catalytic process, using the Amplex® Red hydrogen peroxide/peroxidase assay kit (Invitrogen).
Briefly, a fixed amount of LSD1 was incubated on ice for 15 minutes, in the absence and/or in the presence of at least eight 3-fold serial dilutions of the respective inhibitor (e.g., from 0 to 75 μM, depending on the inhibitor strength). Tranylcypromine (Biomol International) was used as a control for inhibition. Within the experiment, each concentration of inhibitor was tested in duplicate. After leaving the enzyme interacting with the inhibitor, KM of di-methylated H3-K4 peptide was added to each reaction and the experiment was left for 30 minutes at 37° C. in the dark. The enzymatic reactions were set up in a 50 mM sodium phosphate, pH 7.4 buffer. At the end of the incubation, Amplex® Red reagent and horseradish peroxidase (HPR) solution were added to the reaction according to the recommendations provided by the supplier (Invitrogen), and left to incubate for 5 extra minutes at room temperature in the dark. A 1 μM H2O2 solution was used as a control of the kit efficiency. The conversion of the Amplex® Red reagent to resorufin due to the presence of H2O2 in the assay, was monitored by fluorescence (excitation at 540 nm, emission at 590 nm) using a microplate reader (Infinite 200, Tecan). Arbitrary units were used to measure level of H2O2 produced in the absence and/or in the presence of inhibitor. The maximum demethylase activity of LSD1 was obtained in the absence of inhibitor and corrected for background fluorescence in the absence of LSD1. The IC50 value of each inhibitor was calculated with GraphPad Prism Software.

The target of experiment [2] is T2, Human recombinant monoamine oxidase MAO-A (Homo sapiens, UniProt P21397).
T2 construct: purchased Sigma Aldrich
T2 sequence (P21397 1-527): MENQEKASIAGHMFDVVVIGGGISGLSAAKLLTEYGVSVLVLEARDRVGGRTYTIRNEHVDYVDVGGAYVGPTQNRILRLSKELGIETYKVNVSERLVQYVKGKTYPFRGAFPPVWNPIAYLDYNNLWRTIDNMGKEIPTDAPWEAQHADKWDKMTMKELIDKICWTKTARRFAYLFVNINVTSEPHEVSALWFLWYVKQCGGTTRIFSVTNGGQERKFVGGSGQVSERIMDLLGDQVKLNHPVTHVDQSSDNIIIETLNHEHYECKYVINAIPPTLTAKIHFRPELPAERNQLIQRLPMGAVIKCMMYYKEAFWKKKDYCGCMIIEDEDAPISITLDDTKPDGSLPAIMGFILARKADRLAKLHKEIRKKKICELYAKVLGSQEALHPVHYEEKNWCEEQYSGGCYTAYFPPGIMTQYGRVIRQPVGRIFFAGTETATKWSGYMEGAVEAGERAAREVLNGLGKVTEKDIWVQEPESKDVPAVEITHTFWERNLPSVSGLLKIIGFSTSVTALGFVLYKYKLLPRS
Nature of the experiment: MAO-A fluorescence-based kynuramine assay. The experiment is classed as biochemical. From the text:
LSD1 has a fair degree of structural similarity and amino acid identity/homology with the flavin-dependent amine oxidases monoamine oxidase A (MAO-A) and B (MAO-B). To determine the level of selectivity of a LSD1 inhibitor versus MAO-A and MAO-B, the inhibitory activity of a compound of interest against MAO-A and MAO-B can be tested using the method described below: Human recombinant monoamine oxidase proteins MAO-A and MAO-B were purchased from Sigma Aldrich.
MAOs catalyze the oxidative deamination of primary, secondary and tertiary amines. In order to monitor MAO enzymatic activities and/or their inhibition rate by inhibitor(s) of interest, a fluorescence-based (inhibitor)-screening assay was set up. 3-(2-Aminophenyl)-3-oxopropanamine (kynuramine dihydrobromide, Sigma Aldrich), a non fluorescent compound was chosen as a substrate. Kynuramine is a non-specific substrate for both MAO-A and MAO-B activities. While undergoing oxidative deamination by MAO activities, kynuramine is converted into 4-hydroxyquinoline (4-HQ), a resulting fluorescent product.
The monoamine oxidase activity was estimated by measuring the conversion of kynuramine into 4-hydroxyquinoline. Assays were conducted in 96-well black plates with clear bottom (Corning) in a final volume of 100 μL. The assay buffer was 100 mM HEPES, pH 7.5. Each experiment was performed in duplicate within the same experiment.
Briefly, a fixed amount of MAO was incubated on ice for 15 minutes in the reaction buffer, in the absence and/or in the presence of at least eight 3-fold serial dilutions each. Clorgyline and Deprenyl (Sigma Aldrich) was used as a control for specific inhibition of MAO-A and MAO-B respectively.
After leaving the enzyme(s) interacting with the inhibitor, KM of kynuramine was added to each reaction for MAO-B and MAO-A assay respectively, and the reaction was left for 1 hour at 37° C. in the dark. The oxidative deamination of the substrate was stopped by adding 50 μL of NaOH 2N. The conversion of kynuramine to 4-hydroxyquinoline, was monitored by fluorescence (excitation at 320 nm, emission at 360 nm) using a microplate reader (Infinite 200, Tecan). Arbitrary units were used to measure levels of fluorescence produced in the absence and/or in the presence of inhibitor.
The maximum of oxidative deamination activity was obtained by measuring the amount of 4-hydroxyquinoline formed from kynuramine deamination in the absence of inhibitor and corrected for background fluorescence in the absence of MAO enzymes. The IC50 values of each inhibitor were calculated with GraphPad Prism Software.

Regarding `NC(=O)CN[C@H]1C[C@@H]1c1ccc(OCc2ccccc2)cc1` (racemic) [Compound 3, 2-(((trans)-2-(4-(benzyloxy)phenyl)cyclopropyl)amino)acetamide], the concentration for half-maximal inhibition (IC50) – broadly, the midpoint of a concentration-inhibition curve – in experiment [1] was found to be 0.16 µM; in experiment [2], 2.3 µM.

On to `CN1CCN(C(=O)CN[C@H]2C[C@@H]2c2ccc(OCc3ccccc3)cc2)CC1` (racemic) [Compound 4, 2-(((trans)-2-(4-(benzyloxy)phenyl)cyclopropyl)amino)-1-(4-methylpiperazin-1-yl)ethan-1-one], for which the IC50 in experiment [2] was determined as 4.6 µM.

As for `N[C@H]1CCN(CCN[C@H]2C[C@@H]2c2ccc(-c3cccc(C(F)(F)F)c3)cc2)C1` (racemic) [Compound 5, (S)-1-(2-(((trans)-2-(3′-(trifluoromethyl)-[1,1′-biphenyl]-4-yl)cyclopropyl)amino)ethyl)pyrrolidin-3-amine], the IC50 in experiment [1] came out at 0.06 µM; in experiment [2] it was 3.4 µM.

“(+) 5-((((trans)-2-(4-(benzyloxy)phenyl)cyclopropyl)amino)methyl)-1,3,4-oxadiazol-2-amine [Compound 2]”: the IC50 in experiment [1] was found to be 2.3 µM; in experiment [2], 3.8 µM.

As for “(−) 5-((((trans)-2-(4-(benzyloxy)phenyl)cyclopropyl)amino)methyl)-1,3,4-oxadiazol-2-amine [Compound 1]”, the concentration for half-maximal inhibition (IC50) in experiment [1] turned out to be 0.09 µM; in experiment [2], 5.3 µM.

(Values after patent publication US20180284095A1, “BIOMARKERS ASSOCIATED WITH LSD1 INHIBITORS AND USES THEREOF” (Oryzon Genomics, S.A., priority 2015, published 2018).)
